Source: PMC5562778 (Archives of Toxicology, 2017)

Key:
[1] = design: method as in Van Den Berg et al. [2011]; conditions: lower confidence bound of the Benchmark Dose giving 10% extra cancer incidence; ref Van Den Berg et al. [2011]; cited from earlier work
CYP 2A6 [2] = biological target: T1, CYP 2A6 (Homo sapiens, UniProt P11509); assay: CYP 2A6 mediated 7-hydroxylation of coumarin, liver microsomes; assay type: in vitro ADME
T1 construct: tissue PrimeTox (Chinese pool); BD Gentest (Caucasian pool); host or cells: pooled mixed-gender human liver microsomes
T1 sequence (P11509 1-494): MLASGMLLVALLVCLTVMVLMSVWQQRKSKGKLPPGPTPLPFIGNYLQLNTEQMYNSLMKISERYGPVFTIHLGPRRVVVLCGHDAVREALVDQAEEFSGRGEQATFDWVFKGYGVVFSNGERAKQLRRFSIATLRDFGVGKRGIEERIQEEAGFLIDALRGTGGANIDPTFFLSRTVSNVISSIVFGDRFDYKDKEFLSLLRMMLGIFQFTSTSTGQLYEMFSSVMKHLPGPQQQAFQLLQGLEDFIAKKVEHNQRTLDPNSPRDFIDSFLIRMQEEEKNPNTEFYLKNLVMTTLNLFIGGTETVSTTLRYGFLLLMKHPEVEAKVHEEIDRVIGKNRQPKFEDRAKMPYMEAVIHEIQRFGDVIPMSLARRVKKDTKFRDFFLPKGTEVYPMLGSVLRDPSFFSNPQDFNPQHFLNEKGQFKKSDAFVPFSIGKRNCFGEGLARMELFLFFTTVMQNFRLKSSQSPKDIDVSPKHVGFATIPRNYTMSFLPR
Experimental: (§1) The quality of the Chinese and Caucasian liver microsomes was checked by measuring the activity of CYP1A2 and CYP2A6 by the method of Yang et al. ([2012]). The quality of Chinese and Caucasian liver S9 samples was checked by measuring the SULT activity based on the method provided by Wang et al. ([2006]). The details of the methods for the microsomal and S9 in vitro incubations and UPLC analysis for assessing the metabolic capabilities of CYP and SULT enzymes can be found in the supporting materials 1.
(§2) The quality of the Chinese and Caucasian liver microsomes was checked by measuring the activity of CYP 1A2 and CYP 2A6 by the method of Yang et al. (Yang et al. 2012). CYP 1A2 and CYP 2A6 are predominant enzymes for formation of 1'-hydroxyestragole (Jeurissen et al. 2007). The activity of CYP 1A2 was measured with the substrate phenacetin, and the activity of CYP 2A6 was checked using the substrate coumarin. […] The samples were centrifuged for 5 min at 16, 000g to precipitate microsomal proteins and analyzed by UPLC.
(§3) Before UPLC analysis, all samples were centrifuged for 5 min at 16, 000g to precipitate microsomal or cytosolic proteins. Supernatant of each sample was analyzed on UPLC using a BEH C18 (1.7 μm 2.1×50 mm) column with a guard column and a diode array detector (Acquity, Waters).

CYP 2A6 [3] = biological target: T1, CYP 2A6; design: method as in Yang et al. 2012; conditions: ref Yang et al. 2012, cited from earlier work
CYP 1A2 [4] = biological target: T2, CYP 1A2 (Homo sapiens, UniProt P05177); conditions: pH 7.4
T2 sequence (P05177 1-516): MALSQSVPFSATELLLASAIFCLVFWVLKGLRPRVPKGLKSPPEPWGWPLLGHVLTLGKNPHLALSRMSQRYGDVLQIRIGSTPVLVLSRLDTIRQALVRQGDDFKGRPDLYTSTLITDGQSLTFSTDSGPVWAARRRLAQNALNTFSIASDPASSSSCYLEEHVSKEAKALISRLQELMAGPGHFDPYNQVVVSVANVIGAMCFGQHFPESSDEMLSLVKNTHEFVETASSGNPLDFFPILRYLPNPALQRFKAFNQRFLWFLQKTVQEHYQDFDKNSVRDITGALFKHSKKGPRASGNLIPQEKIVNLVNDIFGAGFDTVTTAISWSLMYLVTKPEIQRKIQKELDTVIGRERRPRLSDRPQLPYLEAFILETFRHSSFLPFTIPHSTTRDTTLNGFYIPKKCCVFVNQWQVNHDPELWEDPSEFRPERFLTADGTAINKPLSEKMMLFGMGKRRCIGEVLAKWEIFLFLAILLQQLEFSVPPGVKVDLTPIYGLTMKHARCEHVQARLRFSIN
Experimental: as §1, §2, §3

[5] = design: method as in Bartoli et al. [1996]; conditions: peak at 0.5–2 h; clearance within 7 h of administration; marker for CYP1A2 activity; ref Bartoli et al. [1996]; cited from earlier work
CYP 1A2 [6] = biological target: T2, CYP 1A2; conditions: cited from earlier work
[7] = PBK prediction; route not stated; ref Barter et al. [2013]; cited from earlier work
[8] = route not stated; ref Barter et al. [2013]; cited from earlier work

C=CCc1ccc(OC)cc1 [Estragole, 1-allyl-4-methoxybenzene]
BMDL10 [1]: 3.3–6.5 mg/kg bw/day

O=c1ccc2ccccc2o1 [coumarin]
Catalytic efficiency of CYP 2A6 mediated conversion, lower in Chinese than Caucasian liver microsomes (CYP 2A6 [2]): 1.6 fold | Catalytic efficiency for CYP 2A6 (CYP 2A6 [3]; Chinese liver microsomes, literature range): 150-1776 µl/min/(mg microsomal protein) | CYP 2A6 catalyzed activity, Chinese versus Caucasian liver microsomes (CYP 2A6 [3]): no difference

CCOc1ccc(NC(C)=O)cc1 [phenacetin]
Catalytic efficiency of CYP 1A2 mediated conversion, lower in Chinese than Caucasian liver microsomes (CYP 1A2 [4]; microsomes): 3 fold | Catalytic efficiency (Vmax/Km), CYP 1A2 mediated O-deethylation (CYP 1A2 [4]): 3.1 µl/min/(mg microsomal protein) | Peak plasma concentrations and apparent oral clearance, Chinese versus Caucasian subjects [5]: not differ | Catalytic efficiency of CYP 1A2, lower for Chinese liver microsomes (CYP 1A2 [6]): 2 fold | Catalytic efficiency for CYP 1A2 (CYP 1A2 [6]; microsomes): 0.6-51.4 µl/min/(mg microsomal protein) | Predicted clearance, lower in Chinese than in Caucasian subjects [7]: 36% | Experimentally observed clearance, lower in Chinese individuals than in Caucasian volunteers [8]: 28%
